Measurements from PMC12528448, “Resistance to CDK7 inhibitors directed by acquired mutation of a conserved residue in cancer cells” (The EMBO Journal, 2025).
Values joined by “and” are separate entries in the source; they are usually repeats but may differ in a detail not shown here. Identical values can stand only once.

Key:
Format in all cases: cell-based, human
22Rv1-SamR cells = assay: Growth assay (SRB), Samuraciclib-resistant 22Rv1; details: for % Growth: 22Rv1 SamR, 4 days, biological reps
Protocol: (§1) To determine the IC50 of drug treatments on growth, cells were seeded in 96-well culture plates. Two days after seeding, the cells were treated with increasing concentrations of drugs and incubated for 4 days. Cell number was determined using the SRB assay (Skehan et al, [1990]), and IC50 values were calculated using non-linear regression curve fitting in GraphPad Prism v10. For all other growth experiments, cells were seeded into 96-well plates, and appropriate drugs were added 2 days after seeding. Cells were then incubated in an IncuCyte Zoom live-cell imager, with cell confluency measured every 6 h. Cell doubling times were determined by non-linear curve fitting (exponential growth equation) in GraphPad Prism v10.

22Rv1-CDK7-D97N cells = assay: Growth assay (SRB), 22Rv1 CDK7-D97N knock-in pool; details: for % Growth: 22Rv1 CDK7 D99N
Protocol: as §1
(§2) Alt-R^TM S.p. Cas9 nuclease V3, Alt-R CRISPR-Cas9 crRNA, TracrRNA and the donor templates were obtained from Integrated DNA Technologies. […] Cells were treated with 0.7 µM of Alt-R HDR Enhancer V2 to improve HRD efficiency. Sequences of the CRISPRs in the crRNA and the donor templates are shown in the Reagents and tools table. Donor templates were designed to include non-coding substitutions to aid genome DNA PCR for identifying knock-in events and to facilitate cloning; these substitutions are noted in the Reagents and tools table.

LNCaP cells = assay: Growth assay (SRB), LNCaP
Protocol: as §1

MCF7-CDK7-D97N cells = assay: Growth assay (SRB), MCF7 CDK7-D97N knock-in; details: for % Growth: MCF7 CDK7 D99N, biological reps
Protocol: as §1, §2

LNCaP-CDK7-D97N cells = assay: Growth assay (SRB), LNCaP CDK7-D97N knock-in; details: for % Growth: LNCaP CDK7 D99N
Protocol: as §1, §2

MCF7 cells = assay: Growth assay (SRB), MCF7; details: for % Growth: biological reps
Protocol: as §1

22Rv1 cells = assay: Growth assay (SRB), 22Rv1
Protocol: as §1

Resistance (Fold), fold increase in IC50 of 22Rv1-SamR relative to 22Rv1 (22Rv1-SamR cells; 22Rv1-SamR vs 22Rv1): 2.0 fold
IC50 (MCF7-CDK7-D97N cells; MCF7-CDK7-D97N, 4 days, SRB): 8 nM
IC50 (MCF7 cells; 4 days, SRB): 5.5 nM
SMILES: C=CC(=O)Nc1ccc(C(=O)Nc2[nH]nc3c2CN(C(=O)N[C@H](CN(C)C)c2ccccc2)C3(C)C)cc1 [YKL-5-124]
Sensitivity in growth assays (22Rv1-SamR cells; 22Rv1-SamR): remained sensitive
% Growth (22Rv1-SamR cells; Log10 Conc. (nM) 0.09): 83.75% and 87.25%
% Growth (22Rv1-SamR cells; Log10 Conc. (nM) 0.69): 68.41% and 67.61%
% Growth (22Rv1-SamR cells; Log10 Conc. (nM) 1.29): 30.25% and 41.41%
% Growth (22Rv1-SamR cells; Log10 Conc. (nM) 1.89): -7.69% and -2.73%
% Growth (22Rv1-SamR cells; Log10 Conc. (nM) 2.49): -11.43% and -7.53%
% Growth (22Rv1-SamR cells; Log10 Conc. (nM) 3.10): -11.82% and -8.43%
% Growth (22Rv1-SamR cells; Log10 Conc. (nM) 3.70): -15.22% and -10.53%
% Growth (22Rv1-SamR cells; Log10 Conc. (nM) -0.52): 93.15% and 99.90%
% Growth (22Rv1-SamR cells; Log10 Conc. (nM) -1.12): 93.43% and 95.60%
Sensitivity in growth assays (22Rv1-CDK7-D97N cells; 22Rv1-CDK7-D97N vs parental): remaining sensitive
% Growth (22Rv1-CDK7-D97N cells; Log10 Conc. (nM) 0.09): 95.04% and 95.37%
% Growth (22Rv1-CDK7-D97N cells; Log10 Conc. (nM) 0.69): 93.89% and 97.25%
% Growth (22Rv1-CDK7-D97N cells; Log10 Conc. (nM) 1.29): 85.36% and 88.43%
% Growth (22Rv1-CDK7-D97N cells; Log10 Conc. (nM) 1.89): 88.25% and 90.69%
% Growth (22Rv1-CDK7-D97N cells; Log10 Conc. (nM) 2.49): 93.92% and 88.27%
% Growth (22Rv1-CDK7-D97N cells; Log10 Conc. (nM) 3.10): 65.35% and 66.63%
% Growth (22Rv1-CDK7-D97N cells; Log10 Conc. (nM) 3.70): 34.13% and 30.83%
% Growth (22Rv1-CDK7-D97N cells; Log10 Conc. (nM) -0.52): 104.35% and 94.29%
% Growth (22Rv1-CDK7-D97N cells; Log10 Conc. (nM) -1.12): 96.98% and 94.29%
% Growth (LNCaP cells; Log10 Conc. (nM) 0.09): 110.86% and 92.81%
% Growth (LNCaP cells; Log10 Conc. (nM) 0.69): 85.55% and 79.81%
% Growth (LNCaP cells; Log10 Conc. (nM) 3.70): -11.67% and -9.39%
% Growth (LNCaP cells; Log10 Conc. (nM) -0.52): 109.97% and 100.05%
% Growth (LNCaP cells; Log10 Conc. (nM) -1.12): 106.79% and 104.82%
Resistance (Fold) (MCF7-CDK7-D97N cells; MCF7-CDK7-D97N vs MCF7 WT): 1.45 fold
% Growth (MCF7-CDK7-D97N cells; Log10 Conc. (nM) 0.09, 4 days): 94.47% and 108.04% and 95.31% and 94.01%
% Growth (MCF7-CDK7-D97N cells; Log10 Conc. (nM) 0.69, 4 days): 69.10% and 46.95% and 78.88% and 82.06%
% Growth (MCF7-CDK7-D97N cells; Log10 Conc. (nM) -0.52, 4 days): 98.82% and 155.20% and 98.59% and 96.08%
% Growth (MCF7-CDK7-D97N cells; Log10 Conc. (nM) -1.12, 4 days): 96.88% and 112.86% and 97.89% and 98.06%
% Growth (LNCaP-CDK7-D97N cells; Log10 Conc. (nM) 0.09): 95.98% and 86.14%
% Growth (LNCaP-CDK7-D97N cells; Log10 Conc. (nM) 0.69): 91.96% and 46.53%
% Growth (LNCaP-CDK7-D97N cells; Log10 Conc. (nM) -0.52): 97.82% and 101.86%
% Growth (LNCaP-CDK7-D97N cells; Log10 Conc. (nM) -1.12): 92.55% and 85.18%
Sensitivity in growth assays (LNCaP-CDK7-D97N cells; LNCaP-CDK7-D97N vs parental): remaining sensitive
% Growth (MCF7 cells; Log10 Conc. (nM) 0.09, 4 days): 84.50% and 79.80% and 95.09% and 95.13%
% Growth (MCF7 cells; Log10 Conc. (nM) -0.52, 4 days): 99.55% and 100.47% and 99.34% and 100.40%
% Growth (MCF7 cells; Log10 Conc. (nM) -1.12, 4 days): 92.16% and 94.11% and 96.62% and 97.54%
% Growth (22Rv1 cells; 22Rv1, Log10 Conc. (nM) 0.09): 59.88% and 63.28%
% Growth (22Rv1 cells; 22Rv1, Log10 Conc. (nM) 0.69): 24.70% and 25.33%
% Growth (22Rv1 cells; 22Rv1, Log10 Conc. (nM) 1.29): 14.01% and 10.35%
% Growth (22Rv1 cells; 22Rv1, Log10 Conc. (nM) 1.89): 12.24% and 10.17%
% Growth (22Rv1 cells; 22Rv1, Log10 Conc. (nM) 2.49): 11.07% and 8.36%
% Growth (22Rv1 cells; 22Rv1, Log10 Conc. (nM) 3.10): 1.88% and 3.47%
% Growth (22Rv1 cells; 22Rv1, Log10 Conc. (nM) 3.70): 0.13% and -0.45%
% Growth (22Rv1 cells; 22Rv1, Log10 Conc. (nM) -0.52): 83.49% and 90.26%
% Growth (22Rv1 cells; 22Rv1, Log10 Conc. (nM) -1.12): 94.90% and 93.56%
% Growth (22Rv1 cells; 22Rv1, Log10 Conc. (nM) 0.09, 4 days, biological reps): 93.20% and 88.05%
% Growth (22Rv1 cells; 22Rv1, Log10 Conc. (nM) 0.69, 4 days, biological reps): 85.45% and 77.80%
% Growth (22Rv1 cells; 22Rv1, Log10 Conc. (nM) 1.29, 4 days, biological reps): 56.44% and 44.90%
% Growth (22Rv1 cells; 22Rv1, Log10 Conc. (nM) 1.89, 4 days, biological reps): 5.80% and -0.07%
% Growth (22Rv1 cells; 22Rv1, Log10 Conc. (nM) 2.49, 4 days, biological reps): -4.12% and -6.31%
% Growth (22Rv1 cells; 22Rv1, Log10 Conc. (nM) 3.10, 4 days, biological reps): -6.49% and -7.67%
% Growth (22Rv1 cells; 22Rv1, Log10 Conc. (nM) 3.70, 4 days, biological reps): -6.63% and -7.61%
% Growth (22Rv1 cells; 22Rv1, Log10 Conc. (nM) -0.52, 4 days, biological reps): 98.36% and 93.94%
% Growth (22Rv1 cells; 22Rv1, Log10 Conc. (nM) -1.12, 4 days, biological reps): 96.18% and 94.83%
